Results taken from patent US11746116B2, “Antibiotic resistance breakers” (KING'S COLLEGE LONDON, priority 2017, dated 2023).
Converted amounts (≈) assume the structure as drawn.

Tested on: extended bacterial panel
Experiment: MIC against an extended bacterial panel (Table 15)
Type: cell-based

Cc1cc(C)nc(N[C@@H]2CCN(c3c(F)cc4c(=O)c(C(=O)O)cn5c4c3OC[C@@H]5C)C2)n1 [KSN-BL7, (S)-10-((R)-3-((4,6-dimethylpyrimidin-2-yl)amino)pyrrolidin-1-yl)-9-fluoro-3-methyl-7-oxo-2,3-dihydro-7H-[1,4]oxazino[2,3,4-ij]quinoline-6-carboxylic acid]
MIC (Enterococcus faecalis, ATCC29212, Enterococcus faecalis ATCC 29212): 0.25 µg/mL (≈ 0.551 µM)
MIC (Enterococcus faecalis, ATCC51299, Enterococcus faecalis ATCC 51299, VanB): 0.125 µg/mL (≈ 0.276 µM)
MIC (Enterococcus faecalis, ATCC51575, Enterococcus faecalis ATCC 51575, VanB): 0.25 µg/mL (≈ 0.551 µM)
MIC (Enterococcus faecalis, ATCC700802, Enterococcus faecalis ATCC 700802, VanB): 0.125 µg/mL (≈ 0.276 µM)
MIC (Enterococcus faecalis, CCUG47775, Enterococcus faecalis CCUG 47775, Van A): 0.5 µg/mL (≈ 1.1 µM)
MIC (Enterococcus faecium, CCUG59167, Enterococcus faecium TUH44-29, CCUG 59167, Van A): 1 µg/mL (≈ 2.21 µM)
MIC (Enterococcus gallinarum, ATCC 49608 / GALLINARUM, Enterococcus gallinarum ATCC 49608, VanC): 0.25 µg/mL (≈ 0.551 µM)
MIC (Staphylococcus aureus, ATCC10390, Staphylococcus aureus ATCC 10390): ≤ 0.0312 µg/mL
MIC (Staphylococcus aureus, ATCC 13709 / MRSA, Staphylococcus aureus ATCC 13709, MRSA): ≤ 0.0312 µg/mL
MIC (Staphylococcus aureus, ATCC19636, Staphylococcus aureus Smith, ATCC 19636): ≤ 0.0312 µg/mL
MIC (Staphylococcus aureus, ATCC27660, Staphylococcus aureus ATCC 27660): ≤ 0.0312 µg/mL
MIC (Staphylococcus aureus, ATCC29213, Staphylococcus aureus ATCC 29213): ≤ 0.0312 µg/mL
MIC (Staphylococcus aureus, ATCC29213, Staphylococcus aureus ATCC 29213 with 50% human serum): 1 µg/mL (≈ 2.21 µM)
MIC (Staphylococcus aureus, ATCC 33591 / MRSA, Staphylococcus aureus ATCC 33591, MRSA): ≤ 0.0312 µg/mL
MIC (Staphylococcus aureus, ATCC 33592 / MRSA, Staphylococcus aureus ATCC 33592, MRSA): ≤ 0.0312 µg/mL
MIC (Staphylococcus aureus, ATCC33594, Staphylococcus aureus ATCC 33594): ≤ 0.0312 µg/mL
MIC (Staphylococcus aureus, ATCC49230, Staphylococcus aureus ATCC 49230): ≤ 0.0312 µg/mL
MIC (Staphylococcus aureus, ATCC 700699 / MRSA / VISA, Staphylococcus aureus Mu50, ATCC 700699, MRSA/VISA): 2 µg/mL (≈ 4.41 µM)
MIC (Staphylococcus aureus, BAA-1556 / MRSA / USA300, Staphylococcus aureus FPR3757, BAA-1556, USA300 MRSA): 0.5 µg/mL (≈ 1.1 µM)
MIC (Staphylococcus aureus, BAA-1707 / MRSA / USA400, Staphylococcus aureus MW2, BAA-1707, USA400 MRSA): ≤ 0.0312 µg/mL
MIC (Staphylococcus aureus, BAA-1717 / MRSA / USA300, Staphylococcus aureus TCH1516, BAA-1717, USA300 MRSA): ≤ 0.0312 µg/mL
MIC (Staphylococcus aureus, MRSA / NRS 3 / VISA, Staphylococcus aureus NRS3, MRSA/VISA): 0.5 µg/mL (≈ 1.1 µM)
MIC (Staphylococcus aureus, MRSA / NRS 17 / VISA, Staphylococcus aureus NRS17, MRSA/VISA): 1 µg/mL (≈ 2.21 µM)
MIC (Staphylococcus aureus, MRSA / NRS 22 / USA600 / VISA, Staphylococcus aureus NRS22, USA600 MRSA/VISA): 4 µg/mL (≈ 8.82 µM)
MIC (Staphylococcus aureus, MRSA / NRS 56 / VISA, Staphylococcus aureus NRS56, MRSA/VISA): 1 µg/mL (≈ 2.21 µM)
MIC (Staphylococcus aureus, MRSA / NRS 71, Staphylococcus aureus NRS71, MRSA): 1 µg/mL (≈ 2.21 µM)
MIC (Staphylococcus aureus, MRSA / NRS 100, Staphylococcus aureus COL, NRS100, MRSA): ≤ 0.0312 µg/mL
MIC (Staphylococcus aureus, MRSA / NRS 119, Staphylococcus aureus NRS119, MRSA LZD-NS): 1 µg/mL (≈ 2.21 µM)
MIC (Staphylococcus aureus, MRSA / NRS 123 / USA400, Staphylococcus aureus NRS123, USA400 MRSA): ≤ 0.0312 µg/mL
MIC (Staphylococcus aureus, MRSA / NRS 127, Staphylococcus aureus NRS127, MRSA LZD-NS): 4 µg/mL (≈ 8.82 µM)
MIC (Staphylococcus aureus, MRSA / NRS 269, Staphylococcus aureus NRS269, MRSA TGC-NS): 2 µg/mL (≈ 4.41 µM)
MIC (Staphylococcus aureus, MRSA / NRS 271, Staphylococcus aureus E-MRSA 15, NRS271, MRSA LZD-NS): 0.5 µg/mL (≈ 1.1 µM)
MIC (Staphylococcus aureus, MRSA / NRS 382 / USA100, Staphylococcus aureus NRS382, USA100 MRSA): 0.5 µg/mL (≈ 1.1 µM)
MIC (Staphylococcus aureus, MRSA / NRS 383 / USA200, Staphylococcus aureus NRS383, USA200 MRSA TIG-NS): 1 µg/mL (≈ 2.21 µM)
MIC (Staphylococcus aureus, MRSA / NRS 384 / USA300, Staphylococcus aureus NRS384, USA300 MRSA): ≤ 0.0312 µg/mL
MIC (Staphylococcus aureus, MRSA / NRS 385 / USA500, Staphylococcus aureus NRS385, USA500 MRSA): 0.5 µg/mL (≈ 1.1 µM)
MIC (Staphylococcus aureus, MRSA / NRS 386 / USA700, Staphylococcus aureus NRS386, USA700 MRSA): 0.25 µg/mL (≈ 0.551 µM)
MIC (Staphylococcus aureus, MRSA / NRS 387 / USA800, Staphylococcus aureus NRS387, USA800 MRSA): ≤ 0.0312 µg/mL
MIC (Staphylococcus aureus, MRSA / NRS 402 / VISA, Staphylococcus aureus NRS402, MRSA/VISA DAP-NS): 1 µg/mL (≈ 2.21 µM)
MIC (Staphylococcus aureus, MRSA / NRS 483, Staphylococcus aureus NRS483, USA1000 MRSA): ≤ 0.0312 µg/mL
MIC (Staphylococcus aureus, MRSA / NRS 484, Staphylococcus aureus NRS484, USA1100 MRSA): ≤ 0.0312 µg/mL
MIC (Staphylococcus aureus, MRSA / VISA, Staphylococcus aureus FDA-CDC AR-BANK# 0215): 16 µg/mL (≈ 35.3 µM)
MIC (Staphylococcus aureus, MRSA / VISA, Staphylococcus aureus FDA-CDC AR-BANK# 0216): 0.5 µg/mL (≈ 1.1 µM)
MIC (Staphylococcus aureus, MRSA / VISA, Staphylococcus aureus FDA-CDC AR-BANK# 0217): 1 µg/mL (≈ 2.21 µM)
MIC (Staphylococcus aureus, MRSA / VISA, Staphylococcus aureus FDA-CDC AR-BANK# 0218, MRSA/VISA Mupirocin-R): 1 µg/mL (≈ 2.21 µM)
MIC (Staphylococcus aureus, MRSA / VISA, Staphylococcus aureus FDA-CDC AR-BANK# 0219): 4 µg/mL (≈ 8.82 µM)
MIC (Staphylococcus aureus, MRSA / VISA, Staphylococcus aureus FDA-CDC AR-BANK# 0220): 1 µg/mL (≈ 2.21 µM)
MIC (Staphylococcus aureus, MRSA / VISA, Staphylococcus aureus FDA-CDC AR-BANK# 0221): 0.5 µg/mL (≈ 1.1 µM)
MIC (Staphylococcus aureus, MRSA / VISA, Staphylococcus aureus FDA-CDC AR-BANK# 0223): 1 µg/mL (≈ 2.21 µM)
MIC (Staphylococcus aureus, MRSA / VISA, Staphylococcus aureus FDA-CDC AR-BANK# 0224, MRSA/VISA Mupirocin-R): 1 µg/mL (≈ 2.21 µM)
MIC (Staphylococcus aureus, MRSA / VISA, Staphylococcus aureus FDA-CDC AR-BANK# 0225): 1 µg/mL (≈ 2.21 µM)
MIC (Staphylococcus aureus, MRSA / VISA, Staphylococcus aureus FDA-CDC AR-BANK# 0226): ≤ 0.0312 µg/mL
MIC (Staphylococcus aureus, MRSA / VISA, Staphylococcus aureus FDA-CDC AR-BANK# 0227): 1 µg/mL (≈ 2.21 µM)
MIC (Staphylococcus aureus, MRSA / VISA, Staphylococcus aureus FDA-CDC AR-BANK# 0228, MRSA/VISA Mupirocin-R): 8 µg/mL (≈ 17.6 µM)
MIC (Staphylococcus aureus, MRSA / VRSA, Staphylococcus aureus VRS1, VanA MRSA/VRSA): 1 µg/mL (≈ 2.21 µM)
MIC (Staphylococcus aureus, MRSA / VRSA, Staphylococcus aureus VRS2, VanA MRSA/VRSA): 0.5 µg/mL (≈ 1.1 µM)
MIC (Staphylococcus aureus, MRSA / VRSA, Staphylococcus aureus VRS3a, VanA MRSA/VRSA): 0.5 µg/mL (≈ 1.1 µM)
MIC (Staphylococcus aureus, MRSA / VRSA, Staphylococcus aureus VRS11b, VanA MRSA/VRSA): 2 µg/mL (≈ 4.41 µM)
MIC (Staphylococcus aureus, MRSA, Staphylococcus aureus ECL 2963621, MRSA DAP-NS): 0.25 µg/mL (≈ 0.551 µM)
MIC (Staphylococcus aureus, MRSA, Staphylococcus aureus ECL 2963666, MRSA DAP-NS): 1 µg/mL (≈ 2.21 µM)
MIC (Staphylococcus aureus, MRSA, Staphylococcus aureus ECL 2963667, MRSA DAP-NS): 1 µg/mL (≈ 2.21 µM)
MIC (Staphylococcus aureus, MRSA, Staphylococcus aureus ECL 2963743, MRSA DAP-NS): 0.5 µg/mL (≈ 1.1 µM)
MIC (Staphylococcus aureus, MRSA, Staphylococcus aureus R136): 0.5 µg/mL (≈ 1.1 µM)
MIC (Staphylococcus aureus, NRS 12 / VISA, Staphylococcus aureus NRS12, VISA): 0.0625 µg/mL (≈ 0.138 µM)
MIC (Staphylococcus aureus, NRS72, Staphylococcus aureus Sanger-476, NRS72): ≤ 0.0312 µg/mL
MIC (Staphylococcus aureus, NRS157, Staphylococcus aureus NRS157): ≤ 0.0312 µg/mL
MIC (Staphylococcus aureus, Staphylococcus aureus 6538P): ≤ 0.0312 µg/mL
MIC (Staphylococcus aureus, VISA, Staphylococcus aureus FDA-CDC AR-BANK# 0222): ≤ 0.0312 µg/mL
MIC (Staphylococcus aureus, VRSA, Staphylococcus aureus ECL 2963646): 0.5 µg/mL (≈ 1.1 µM)
MIC (Staphylococcus epidermidis, ATCC12228, Staphylococcus epidermidis ATCC 12228): ≤ 0.0312 µg/mL
MIC (Staphylococcus epidermidis, ATCC51625, Staphylococcus epidermidis CCF 15990, ATCC 51625): ≤ 0.0312 µg/mL
MIC (Staphylococcus epidermidis, NRS7, Staphylococcus epidermidis NRS7, VISE): 0.5 µg/mL (≈ 1.1 µM)
MIC (Staphylococcus epidermidis, NRS8, Staphylococcus epidermidis NRS8, VISE): 1 µg/mL (≈ 2.21 µM)
MIC (Staphylococcus epidermidis, NRS60, Staphylococcus epidermidis NRS60, VISE): 0.0625 µg/mL (≈ 0.138 µM)
MIC (Staphylococcus epidermidis, NRS101, Staphylococcus epidermidis NRS101): ≤ 0.0312 µg/mL
MIC (Staphylococcus haemolyticus, ATCC29970, Staphylococcus haemolyticus ATCC 29970): ≤ 0.0312 µg/mL
MIC (Staphylococcus intermedius, ATCC29663, Staphylococcus intermedius ATCC 29663): ≤ 0.0312 µg/mL
MIC (Staphylococcus saprophyticus, ATCC15305, Staphylococcus saprophyticus ATCC 15305): 0.0625 µg/mL (≈ 0.138 µM)
MIC (Strepotococcus pyogenes ATCC 14289): 0.125 µg/mL (≈ 0.276 µM)
MIC (Strepotococcus pyogenes ATCC 19615): 0.125 µg/mL (≈ 0.276 µM)
MIC (Streptococcus agalactiae, ATCC12386, Streptococcus agalactiae ATCC 12386): 0.25 µg/mL (≈ 0.551 µM)
MIC (Streptococcus mutans, ATCC25175, Streptococcus mutans ATCC 25175): ≤ 0.0312 µg/mL
MIC (Streptococcus oralis, ATCC9811, Streptococcus oralis ATCC 9811): 0.25 µg/mL (≈ 0.551 µM)
MIC (Streptococcus pneumoniae, ATCC6301, Streptococcus pneumoniae ATCC 6301): 0.125 µg/mL (≈ 0.276 µM)
MIC (Streptococcus pneumoniae, ATCC49619, Streptococcus pneumoniae ATCC 49619): 0.125 µg/mL (≈ 0.276 µM)
MIC (Streptococcus pneumoniae, ATCC51916, Streptococcus pneumoniae Tenessee 23F, ATCC 51916, MDR): 0.125 µg/mL (≈ 0.276 µM)
MIC (Streptococcus pneumoniae, ATCC700669, Streptococcus pneumoniae SP264, ATCC 700669, ST 23F): 0.0625 µg/mL (≈ 0.138 µM)
MIC (Streptococcus pneumoniae, ATCC700673, Streptococcus pneumoniae Hungary 19A, ATCC 700673, MDR): 0.0625 µg/mL (≈ 0.138 µM)
MIC (Streptococcus pneumoniae, ATCC700675, Streptococcus pneumoniae S. Africa 6B-8, ATCC 700675): 0.0625 µg/mL (≈ 0.138 µM)
MIC (Streptococcus pneumoniae, ATCC700676, Streptococcus pneumonia England ST14-9 ATCC 700676, ERY-R): 0.125 µg/mL (≈ 0.276 µM)
MIC (Streptococcus pneumoniae, ATCC 700677 / PRSP, Streptococcus pneumoniae CSR 14-10, ATCC 700677, PRSP): 0.0625 µg/mL (≈ 0.138 µM)
MIC (Streptococcus pneumoniae, PRSP, Streptococcus pneumoniae TM532): 0.0625 µg/mL (≈ 0.138 µM)
MIC (Streptococcus salivarius, ATCC13419, Streptococcus salivarius ATCC 13419): 0.25 µg/mL (≈ 0.551 µM)
MIC (Streptococcus sanguinis, ATCC10556, Streptococcus sanguinis ATCC 10556): 0.25 µg/mL (≈ 0.551 µM)
